Assay results published in patent US20250144094A1 (Erasca, Inc., priority 2021, published 2025).
pIC50: −log10 of the molar value.

These compounds were tested against Recombinant human ULK1 (1-649) (Homo sapiens (Human), UniProt O75385) (assay: ULK1 ADP Glo kinase activity assay (MBP substrate)). Conditions: 25° C., 40 minutes, read-out: ULK1 biochemical IC50.
Method in brief: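 GST-tagged ULK1 (1-649) from Sf9 cells phosphorylated MBP, with ATP, for 40 min at 25 °C across a 12-point series from 10 uM. ADP formed was quantified by ADP-Glo luminescence against DMSO controls. IC50 came from a four-parameter variable-slope fit of log concentration.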

Recombinant human ULK1 (1-649), sequence (O75385 1-649): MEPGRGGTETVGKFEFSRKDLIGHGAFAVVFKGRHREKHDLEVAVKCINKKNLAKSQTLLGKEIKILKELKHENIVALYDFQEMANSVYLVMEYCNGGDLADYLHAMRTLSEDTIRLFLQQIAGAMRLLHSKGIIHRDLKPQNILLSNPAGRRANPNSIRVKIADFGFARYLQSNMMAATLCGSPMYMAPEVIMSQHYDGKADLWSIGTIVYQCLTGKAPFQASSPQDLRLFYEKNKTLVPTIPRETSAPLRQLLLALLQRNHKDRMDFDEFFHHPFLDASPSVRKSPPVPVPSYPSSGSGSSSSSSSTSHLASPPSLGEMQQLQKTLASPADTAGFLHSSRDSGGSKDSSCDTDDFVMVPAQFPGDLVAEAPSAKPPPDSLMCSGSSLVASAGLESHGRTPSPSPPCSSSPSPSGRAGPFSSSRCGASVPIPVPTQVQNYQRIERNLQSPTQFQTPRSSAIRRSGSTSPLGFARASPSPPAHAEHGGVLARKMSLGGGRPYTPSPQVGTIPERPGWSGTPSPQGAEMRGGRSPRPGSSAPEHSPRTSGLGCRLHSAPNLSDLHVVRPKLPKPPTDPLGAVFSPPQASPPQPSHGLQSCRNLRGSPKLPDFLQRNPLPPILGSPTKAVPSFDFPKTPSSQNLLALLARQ

SMILES | pIC50
CN1CCc2cc(Nc3ncc(C(F)(F)F)c(-c4cc5c(s4)CN(C)CCS5(=O)=O)n3)c(Cl)cc2C1 [Example 109, 7-chloro-2-methyl-N-[4-(4-methyl-1,1-dioxo-3,5-dihydro-2H-thieno[2,3-f][1,4]thiazepin-7-yl)-5-(trifluoromethyl)pyrimidin-2-yl]-3,4-dihydro-1H-isoquinolin-6-amine] | ≥ 8.00
CS(=O)(=O)c1csc(-c2nc(Nc3cc4c(cc3F)CCNC4)ncc2C(F)(F)F)c1 [Example 110, 6-fluoro-N-[4-(4-methylsulfonyl-2-thienyl)-5-(trifluoromethyl)pyrimidin-2-yl]-1,2,3,4-tetrahydroisoquinolin-7-amine] | ≥ 8.00
CN1CCc2cc(F)c(Nc3ncc(C(F)(F)F)c(-c4cc(S(C)(=O)=O)cs4)n3)cc2C1 [Example 111, 6-fluoro-2-methyl-N-[4-(4-methylsulfonyl-2-thienyl)-5-(trifluoromethyl)pyrimidin-2-yl]-3,4-dihydro-1H-isoquinolin-7-amine] | ≥ 8.00
CS(=O)(=O)c1csc(-c2nc(Nc3cc4c(cc3Cl)CN(C3CC3)C4)ncc2C(F)(F)F)c1 [Example 113, 6-chloro-2-cyclopropyl-N-[4-(4-methylsulfonyl-2-thienyl)-5-(trifluoromethyl)pyrimidin-2-yl]isoindolin-5-amine] | 7.30 to 8.00
CS(=O)(=O)c1csc(-c2nc(Nc3cc4c(cc3F)CN(C3CC3)C4)ncc2C(F)(F)F)c1 [Example 114, 2-cyclopropyl-6-fluoro-N-[4-(4-methylsulfonyl-2-thienyl)-5-(trifluoromethyl)pyrimidin-2-yl]isoindolin-5-amine] | 7.30 to 8.00
CN1CCc2cc(Nc3ncc(C(F)(F)F)c(-c4cc(S(C)(=O)=O)cs4)n3)c(C3CC3)cc2C1 [Example 115, 7-cyclopropyl-2-methyl-N-[4-(4-methylsulfonyl-2-thienyl)-5-(trifluoromethyl)pyrimidin-2-yl]-3,4-dihydro-1H-isoquinolin-6-amine] | ≥ 8.00
CN1CCc2cc(Nc3ncc(C(F)(F)F)c(-c4cc5c(s4)C(=O)N(C)CCS5(=O)=O)n3)c(Cl)cc2C1 [Example 116, 7-[2-[(7-chloro-2-methyl-3,4-dihydro-1H-isoquinolin-6-yl)amino]-5-(trifluoromethyl)pyrimidin-4-yl]-4-methyl-1,1-dioxo-2,3-dihydrothieno[2,3-f][1,4]thiazepin-5-one] | ≥ 8.00
O=S1(=O)CCNCc2sc(-c3nc(Nc4cc5c(cc4Cl)CN(C4CC4)CC5)ncc3C(F)(F)F)cc21 [Example 117, 7-chloro-2-cyclopropyl-N-[4-(1,1-dioxo-2,3,4,5-tetrahydrothieno[2,3-f][1,4]thiazepin-7-yl)-5-(trifluoromethyl)pyrimidin-2-yl]-3,4-dihydro-1H-isoquinolin-6-amine] | ≥ 8.00
CS(=O)(=O)c1csc(-c2nc(Nc3cc4c(cc3F)CN(C3CC3)CC4)ncc2C(F)(F)F)c1 [Example 118, 2-cyclopropyl-7-fluoro-N-[4-(4-methylsulfonyl-2-thienyl)-5-(trifluoromethyl)pyrimidin-2-yl]-3,4-dihydro-1H-isoquinolin-6-amine] | 7.30 to 8.00
Cc1nn(C2CCN(C)CC2)cc1Nc1ncc(C(F)(F)F)c(-c2cc(S(C)(=O)=O)cs2)n1 [Example 119, N-[3-methyl-1-(1-methyl-4-piperidyl)pyrazol-4-yl]-4-(4-methylsulfonyl-2-thienyl)-5-(trifluoromethyl)pyrimidin-2-amine] | ≥ 8.00
Cc1nn(C2CN(C)C2)cc1Nc1ncc(C(F)(F)F)c(-c2cc(S(C)(=O)=O)cs2)n1 [Example 120, N-[3-methyl-1-(1-methylazetidin-3-yl)pyrazol-4-yl]-4-(4-methylsulfonyl-2-thienyl)-5-(trifluoromethyl)pyrimidin-2-amine] | 7.30 to 8.00
CS(=O)(=O)c1csc(-c2nc(Nc3cc(C4CNC4)ccc3Cl)ncc2C(F)(F)F)c1 [Example 121, N-(5-(azetidin-3-yl)-2-chlorophenyl)-4-(4-(methylsulfonyl)thiophen-2-yl)-5-(trifluoromethyl)pyrimidin-2-amine] | 7.00 to 7.30
CN1CC(c2ccc(Cl)c(Nc3ncc(C(F)(F)F)c(-c4cc(S(C)(=O)=O)cs4)n3)c2)C1 [Example 122, N-(2-chloro-5-(1-methylazetidin-3-yl)phenyl)-4-(4-(methylsulfonyl)thiophen-2-yl)-5-(trifluoromethyl)pyrimidin-2-amine] | 6.30 to 7.00
Cc1nn(C2CNC2)cc1Nc1ncc(C(F)(F)F)c(-c2cc(S(C)(=O)=O)cs2)n1 [Example 123, N-(1-(azetidin-3-yl)-3-methyl-1H-pyrazol-4-yl)-4-(4-(methylsulfonyl)thiophen-2-yl)-5-(trifluoromethyl)pyrimidin-2-amine] | 7.30 to 8.00
Cc1nn(C2CN(C)C2)cc1Nc1ncc(C(F)(F)F)c(-c2cc(S(C)(=O)=O)cs2)n1 [Example 124, N-(3-methyl-1-(1-methylazetidin-3-yl)-1H-pyrazol-4-yl)-4-(4-(methylsulfonyl)thiophen-2-yl)-5-(trifluoromethyl)pyrimidin-2-amine] | 6.30 to 7.00
O=C1NCCS(=O)(=O)c2cc(-c3nc(Nc4cc5c(cc4Cl)CN(CC(F)(F)F)CC5)ncc3C(F)(F)F)sc21 [Example 125, 7-(2-((7-chloro-2-(2,2,2-trifluoroethyl)-1,2,3,4-tetrahydroisoquinolin-6-yl)amino)-5-(trifluoromethyl)pyrimidin-4-yl)-3,4-dihydrothieno[2,3-f][1,4]thiazepin-5(2H)-one 1,1-dioxide] | 6.30 to 7.00
O=C1NCCS(=O)(=O)c2cc(-c3nc(Nc4cc5c(cc4Cl)CN(C4CC4)CC5)ncc3C(F)(F)F)sc21 [Example 126, 7-(2-((7-chloro-2-cyclopropyl-1,2,3,4-tetrahydroisoquinolin-6-yl)amino)-5-(trifluoromethyl)pyrimidin-4-yl)-3,4-dihydrothieno[2,3-f][1,4]thiazepin-5(2H)-one 1,1-dioxide] | 7.30 to 8.00
CS(=O)(=O)c1csc(-c2nc(Nc3cc4c(cc3Cl)CNCCC4)ncc2C(F)(F)F)c1 [Example 127, 8-chloro-N-(4-(4-(methylsulfonyl)thiophen-2-yl)-5-(trifluoromethyl)pyrimidin-2-yl)-2,3,4,5-tetrahydro-1H-benzo[c]azepin-7-amine] | ≥ 8.00
CS(=O)(=O)c1csc(-c2nc(Nc3cn(C4CCNCC4)nc3C3CC3)ncc2C(F)(F)F)c1 [Example 128, N-(3-Cyclopropyl-1-(piperidin-4-yl)-1H-pyrazol-4-yl)-4-(4-(methylsulfonyl)thiophen-2-yl)-5-(trifluoromethyl)pyrimidin-2-amine] | ≥ 8.00
CN1CCC(n2cc(Nc3ncc(C(F)(F)F)c(-c4cc(S(C)(=O)=O)cs4)n3)c(C3CC3)n2)CC1 [Example 129, N-(3-cyclopropyl-1-(1-methylpiperidin-4-yl)-1H-pyrazol-4-yl)-4-(4-(methylsulfonyl)thiophen-2-yl)-5-(trifluoromethyl)pyrimidin-2-amine] | ≥ 8.00
CS(=O)(=O)c1csc(-c2nc(Nc3cc4c(cc3C3CC3)CNC4)ncc2C(F)(F)F)c1 [Example 131, 6-cyclopropyl-N-(4-(4-(methylsulfonyl)thiophen-2-yl)-5-(trifluoromethyl)pyrimidin-2-yl)isoindolin-5-amine] | ≥ 8.00
